# Patent EP4556004A1 (priority 2023, dated 2025)
# Test system: HCoV-229E
# Experiment: microbe, parasite or virus in culture
# Assay type: cell-based, Human coronavirus 229E
# Conditions: not given
row,Molecule,IC50 [µM]
1,"CC(C)=CCc1c(O)cc(O)c(C(=O)C(C)C)c1O [AH56-F3, 2-methyl-1-(2,4,6-trihydroxy-3-(3-methylbut-2-en-1-yl)phenyl)propan-1-one]",> 24
2,"CC(C)=CCc1c(O)cc(O)c(C(=O)C(C)C)c1O [AH62-F2, 2-methyl-1-(2,4,6-trihydroxy-3-(3-methylbut-2-en-1-yl)phenyl)propan-1-one]",< 3
3,"CC(C)=CCC1=C(O)C(C(=O)C(C)C)=C(O)C(CC=C(C)C)(CC=C(C)C)C1=O [Colupulone, Co-lupulone]",< 3
4,Ad-lupulone,< 12

# Same assay, conditions: Human coronavirus 229E, Huh-7
row,Molecule,IC50 [µM]
1,"CC(C)=CCC1=C(O)C(CC=C(C)C)(CC=C(C)C)C(=O)C(C(=O)CC(C)C)=C1O [AH6-F2, 3,5-dihydroxy-4,6,6-tris(3-methylbut-2-en-1-yl)-2-(3-methylbutanoyl)cyclohexa-2,4-dien-1-one]",< 3
2,"CCC(C)C(=O)C1=C(O)C(CC=C(C)C)=C(O)C(CC=C(C)C)(CC=C(C)C)C1=O (stereo not drawn) [AH8-F2, 3,5-dihydroxy-4,6,6-tris(3-methylbut-2-en-1-yl)-2-(2-methylbutanoyl)cyclohexa-2,4-dien-1-one]",< 12
3,"CCCC(=O)C1=C(O)C(CC=C(C)C)=C(O)C(CC=C(C)C)(CC=C(C)C)C1=O [AH10-F2, 2-butyryl-3,5-dihydroxy-4,6,6-tris(3-methylbut-2-en-1-yl)cyclohexa-2,4-dien-1-one]",< 3
4,"CC(=O)C1=C(O)C(CC=C(C)C)=C(O)C(CC=C(C)C)(CC=C(C)C)C1=O [AH16-F2, 2-acetyl-3,5-dihydroxy-4,6,6-tris(3-methylbut-2-en-1-yl)cyclohexa-2,4-dien-1-one]",< 12
5,"CCC(=O)C1=C(O)C(CC=C(C)C)=C(O)C(CC=C(C)C)(CC=C(C)C)C1=O [AH17-F2, 3,5-dihydroxy-4,6,6-tris(3-methylbut-2-en-1-yl)-2-propionylcyclohexa-2,4-dien-1-one]",> 24
6,"CCCCC(=O)C1=C(O)C(CC=C(C)C)=C(O)C(CC=C(C)C)(CC=C(C)C)C1=O [AH18-F4, 3,5-dihydroxy-4,6,6-tris(3-methylbut-2-en-1-yl)-2-pentanoylcyclohexa-2,4-dien-1-one]",< 12
7,"CC(C)=CCC1=C(O)C(CC=C(C)C)(CC=C(C)C)C(=O)C(C(=O)CCC(C)C)=C1O [AH39-F1, 3,5-dihydroxy-4,6,6-tris(3-methylbut-2-en-1-yl)-2-(4-methylpentanoyl)cyclohexa-2,4-dien-1-one]",< 12
8,"CCC(C)CC(=O)C1=C(O)C(CC=C(C)C)=C(O)C(CC=C(C)C)(CC=C(C)C)C1=O (stereo not drawn) [AH40-F1, 3,5-dihydroxy-4,6,6-tris(3-methylbut-2-en-1-yl)-2-(3-methylpentanoyl)cyclohexa-2,4-dien-1-one]",< 12
9,"CC(C)=CCC1=C(O)C(CC=C(C)C)(CC=C(C)C)C(=O)C(C(=O)C=Cc2ccccc2)=C1O [AH41-F1, 2-cinnamoyl-3,5-dihydroxy-4,6,6-tris(3-methylbut-2-en-1-yl)cyclohexa-2,4-dien-1-one]",< 12
10,"CC(C)=CCC1=C(O)C(CC=C(C)C)(CC=C(C)C)C(=O)C(C(=O)/C=C/c2ccc(C(F)(F)F)cc2)=C1O [AH44-F2, (E)-3,5-dihydroxy-4,6,6-tris(3-methylbut-2-en-1-yl)-2-(3-(4-(trifluoromethyl)phenyl)acryloyl)cyclohexa-2,4-dien-1-one]",< 12
11,"CC(C)=CCC1=C(O)C(CC=C(C)C)(CC=C(C)C)C(=O)C(C(=O)c2ccccc2)=C1O [AH47-F3, 2-benzoyl-3,5-dihydroxy-4,6,6-tris(3-methylbut-2-en-1-yl)cyclohexa-2,4-dien-1-one]",< 12
12,"CC(=O)c1c(O)c(CC=C(C)C)c(O)c(CC=C(C)C)c1O [AH52-F1, 1-(2,4,6-trihydroxy-3,5-bis-(3-methylbut-2-en-1-yl)phenyl)ethan-1-one]",> 24
13,"CC(C)=CCC1C(=O)C(C(=O)CC(C)C)=C(O)C=C1O (stereo not drawn) [AH55-F3, 3,5-dihydroxy-6-(3-methylbut-2-en-1-yl)-2-(3-methylbutanoyl)cyclohexa-2,4-dien-1-one]",< 24
14,"CCC(C)C(=O)c1c(O)cc(O)c(CC=C(C)C)c1O (stereo not drawn) [AH57-F3, 2-methyl-1-(2,4,6-trihydroxy-3-(3-methylbut-2-en-1-yl)phenyl)butan-1-one]",< 24
15,"CC(C)=CCC1(CC=C(C)C)C(=O)C(C(=O)C(C)C)=C(O)C(C(=O)C(C)C)=C1O [AH66-F1, 1,1'-(2,4-dihydroxy-5,5-bis(3-methylbut-2-en-1-yl)-6-oxocyclohexa-1,3-diene-1,3-diyl)bis(2-methylpropan-1-one)]",< 12
16,"CC(C)=CCC1=C(O)C(CC=C(C)C)(CC=C(C)C)C(=O)C(C(=O)CCCCCNc2ccc([N+](=O)[O-])c3nonc23)=C1O [AH77-F1, 3,5-dihydroxy-4,6,6-tris(3-methylbut-2-en-1-yl)-2-(6-((7-nitrobenzo[c][1,2,5]oxadiazol-4-yl)amino)hexanoyl)cyclohexa-2,4-dien-1-one]",< 12
17,"CC(C)=CCC1=C(O)[C@](O)(CC=C(C)C)C(=O)C(C(=O)C(C)C)=C1O [Co-humulone, reference compound]",> 24
18,"CC(C)=CCC1=C(O)[C@](O)(CC=C(C)C)C(=O)C(C(=O)CC(C)C)=C1O [Humulone, reference compound]",> 24
19,"CC(C)=CCC1(CC=C(C)C)C(=O)CC(O)=C(C(=O)CC(C)C)C1=O [LB68-F3, 5-hydroxy-2,2-bis(3-methylbut-2-en-1-yl)-4-(3-methylbutanoyl)cyclohex-4-ene-1,3-dione]",< 12
20,"CC(C)=CCC1=C(O)C(CC=C(C)C)(CC=C(C)C)C(=O)C(C(=O)C(C)C)=C1O [LB.70-F2, 3,5-dihydroxy-4,6,6-tris(3-methylbut-2-en-1-yl)-2-(2-methylpropanoyl)cyclo-hexa-2,4-dien-1-one]",< 3
21,CC(C)=CCC1=C(O)C(C(=O)CC(C)C)=C(O)C(CC=C(C)C)(CC=C(C)C)C1=O [Lupulone],< 3

# Test system: SARS-CoV-2
# Experiment: SARS-CoV-2 antiviral assay in human primary epithelial nasal cells (Mucilair)
# Assay type: cell-based, severe acute respiratory syndrome coronavirus-2
# Conditions: not given
row,Molecule,reduction of SARS-CoV-2 infection
1,"CC(C)=CCC1=C(O)C(C(=O)C(C)C)=C(O)C(CC=C(C)C)(CC=C(C)C)C1=O [Colupulone, Co-lupulone]",able to reduce

# Test system: HCoV-229E
# Experiment: not given
# Assay type: cell-based, Human coronavirus 229E
# Conditions: not given
row,Molecule,reduction of HCoV-229E infection
1,"CC(C)=CCC1=C(O)C(C(=O)C(C)C)=C(O)C(CC=C(C)C)(CC=C(C)C)C1=O [Colupulone, Co-lupulone]",able to reduce
